In paper PMC5347165, “Killing of Staphylococcus aureus and Salmonella enteritidis and neutralization of lipopolysaccharide by 17-residue bovine lactoferricins: improved activity of Trp/Ala-containing molecules” (Scientific Reports, 2017):
In brackets after ≈: the same amount, converted by molar mass. Read-outs that look alike come from different tables or passages of the source. Ends that are not written are not given here.

Columns and labels:
mouse erythrocytes = conditions: 256 μg/ml; cited from earlier work
S. enteritidis CVCC3377 = type: cell-based, Salmonella enteritidis; conditions: CVCC3377, 18 h
Description: (§1) The MIC values of LfcinB17-33 derivatives against bacteria were determined by the microtiter broth dilution method. Briefly, 10 μl of serially diluted aliquots of peptides were added to each well of 96-well microtiter plates, followed by the addition of 90 μl exponential phase bacteria (10^5 CFU/ml) and incubated for 16‒18 h at 37 °C.

S. aureus ATCC25923 [1] = type: cell-based, Staphylococcus aureus; conditions: ATCC25923, 18 h
Description: as §1

E. coli CVCC1515 = type: cell-based, Escherichia coli; conditions: CVCC1515, 18 h
Description: as §1

[2] = tested on: E. coli CICC21530 (serotype O157:H7); type: cell-based, Escherichia coli; conditions: microtiter broth dilution, 10^5 CFU/ml, 16‒18 h at 37 °C; representative of three independent experiments
Description: as §1

P. aeruginosa CICC21630 = type: cell-based, Pseudomonas aeruginosa; conditions: CICC21630, 18 h
Description: as §1

[3] = tested on: Pseudomonas aeruginosa CICC10419; type: cell-based; conditions: CICC10419, 18 h
Description: as §1

[4] = tested on: Staphylococcus aureus ATCC43300; type: cell-based; conditions: ATCC43300, 18 h
Description: as §1

[5] = tested on: Streptococcus suis CVCC606; type: cell-based; conditions: 18 h
Description: as §1

[6] = tested on: Enterococcus faecium CMCC1.2136; type: cell-based; conditions: CMCC1.2136, 18 h
Description: as §1

S. pullorum CVCC1802 = type: cell-based; conditions: CVCC1802, 18 h
Description: as §1

[7] = tested on: Bacillus subtilis ATCC6633; type: cell-based; conditions: ATCC6633, 18 h
Description: as §1

S. choleraesuis CVCC503 = type: cell-based; conditions: CVCC503, 18 h
Description: as §1

S. pullorum CVCC1789 = type: cell-based; conditions: CVCC1789, 18 h
Description: as §1

[8] = tested on: Salmonella typhimurium ATCC14028; type: cell-based; conditions: ATCC14028, 18 h
Description: as §1

Escherichia coli CVCC195 = type: cell-based; conditions: CVCC195, 18 h
Description: as §1

S. aureus ATCC25923 [9] = type: in vivo
Description: The thigh infection protocol was performed as previously described. Female BALB/c mice (6 weeks old, 22 ± 2 g) were rendered neutropenic (neutrophils, 100/mm^3) by intraperitoneal injection with 150 and 100 mg cyclophosphamide per kg of body weight for 4 d and 1 d before infection, respectively. Mice were inoculated with 100 μl of S. aureus ATCC25923 cells (1.0 × 10^7 CFU/ml) and given a single dose (0.2 ml) of Lfcin4 or Lfcin5 (10 or 15 mg/kg of body weight) or vancomycin (10 mg/kg of body weight) by tail vein injection at 2 h post-infection. Mice were humanely euthanized by cervical dislocation at 5 and 10 h after treatment. Thighs were removed and homogenized in sterile PBS for a CFU assay for S. aureus ATCC25923.

LPS from E. coli O111:B4 = assay: LPS-induced endotoxemia model, survival; type: in vivo, mouse (C57BL/6); conditions: 15 mg/kg i.p. at 0.5, 8 and 24 h after LPS 30 mg/kg i.p.; followed 7 d; groups of eight mice
Description: Male C57BL/6 mice (8 weeks old, 22 ± 2 g) were intraperitoneally injected with 30 mg/kg of LPS (0.2 ml) from E. coli O111:B4 cells as previously described. Mice were intraperitoneally injected with Lfcin4 or Lfcin5 (10, 15 or 20 mg/kg of body weight in 0.2 ml) or colistin (15 mg/kg of body weight in 0.2 ml) at 0.5, 8 and 24 h after inoculation with LPS, respectively. Mice injected with LPS or saline only served as positive or mock-treated controls, respectively. Survival was recorded every 12 h and followed for up to 7 d.

For `CSCC[C@H](NC(=O)[C@H](CCCNC(=N)N)NC(=O)[C@H](Cc1c[nH]c2ccccc12)NC(=O)[C@H](CCC(N)=O)NC(=O)[C@H](Cc1c[nH]c2ccccc12)NC(=O)[C@H](CCCNC(=N)N)NC(=O)[C@H](CCCNC(=N)N)NC(=O)[C@H](CS)NC(=O)[C@H](CCCCN)NC(=O)[C@@H](N)Cc1ccccc1)C(=O)N[C@@H](CCCCN)C(=O)N[C@@H](CCCCN)C(=O)N[C@@H](CC(C)C)C(=O)NCC(=O)N[C@@H](C)C(=O)O` [Lfcin1], the hemolysis (mouse erythrocytes) is listed as “approximately 7.5%”.
Work on `CSCC[C@H](NC(=O)[C@H](CCCNC(=N)N)NC(=O)[C@H](Cc1c[nH]c2ccccc12)NC(=O)[C@H](CCC(N)=O)NC(=O)[C@H](Cc1c[nH]c2ccccc12)NC(=O)[C@H](CCCNC(=N)N)NC(=O)[C@H](CCCNC(=N)N)NC(=O)[C@H](CS)NC(=O)[C@H](CCCCN)NC(=O)[C@@H](N)Cc1ccccc1)C(=O)N[C@@H](CCCCN)C(=O)N[C@@H](CCCCN)C(=O)N[C@@H](CC(C)C)C(=O)NCC(=O)N[C@@H](C)C(=O)N1CCC[C@H]1C(=O)N[C@@H](CO)C(=O)O` [Lfcin2] yielded an MIC (S. enteritidis CVCC3377) of 15 µM (≈ 32.7 µg/mL), an MIC (S. aureus ATCC25923 [1]) of 0.92 µM (≈ 2 µg/mL) and an MIC (E. coli CVCC1515) of over 59 µM. The MIC [2] was 59 µM (≈ 129 µg/mL), the MIC (P. aeruginosa CICC21630) was over 59 µM and the MIC [3] was over 59 µM. For the same compound, the MIC [4] was over 59 µM, the MIC [5] was over 59 µM and the MIC [6] was 15 µM (≈ 32.7 µg/mL). It also gave an MIC (S. pullorum CVCC1802) of over 59 µM, an MIC [7] of 29 µM (≈ 63.2 µg/mL) and an MIC (S. choleraesuis CVCC503) of 59 µM (≈ 129 µg/mL). For the same compound, the MIC (S. pullorum CVCC1789) was over 59 µM, the MIC [8] was 29 µM (≈ 63.2 µg/mL) and the MIC (Escherichia coli CVCC195) was 15 µM (≈ 32.7 µg/mL).
For `CN[C@H](CC(C)C)C(=O)N[C@H]1C(=O)N[C@@H](CC(N)=O)C(=O)N[C@H]2C(=O)N[C@H]3C(=O)N[C@H](C(=O)N[C@H](C(=O)O)c4cc(O)cc(O)c4-c4cc3ccc4O)[C@H](O)c3ccc(c(Cl)c3)Oc3cc2cc(c3O[C@@H]2O[C@H](CO)[C@@H](O)[C@H](O)[C@H]2O[C@H]2C[C@](C)(N)[C@H](O)[C@H](C)O2)Oc2ccc(cc2Cl)[C@H]1O` [vancomycin, reference compound], the “decrease of bacterial count in thigh” value (S. aureus ATCC25923 [9]; 10 mg/kg single i.v. dose (Fig. 6B), time not restated, sentence follows the 5 h result) was 0.1 log10 CFU/g and the “S. aureus cells killed” value (S. aureus ATCC25923 [9]; 10 h post-treatment, 10 mg/kg single i.v. dose) was −1.2%.
FKAFRWAWRMKKLAAPS [Lfcin3] gave an MIC (S. enteritidis CVCC3377) of 1.9 µM, an MIC (S. aureus ATCC25923 [1]) of 0.95 µM and an MIC (E. coli CVCC1515) of 31 µM. The MIC [2] was 31 µM, the MIC (P. aeruginosa CICC21630) was over 61 µM and the MIC [3] was over 61 µM. The MIC [4] was over 61 µM, the MIC [5] was 61 µM and the MIC [6] was 15 µM. It also gave an MIC (S. pullorum CVCC1802) of over 61 µM, an MIC [7] of 15 µM and an MIC (S. choleraesuis CVCC503) of 61 µM. The MIC (S. pullorum CVCC1789) was over 61 µM, the MIC [8] was 61 µM and the MIC (Escherichia coli CVCC195) was 31 µM.
Compound FKAFRWAWRWKKLAAPS [Lfcin5] has an MIC (S. enteritidis CVCC3377) of 1.9 µM, an MIC (S. aureus ATCC25923 [1]) of 0.93 µM and an MIC (E. coli CVCC1515) of 60 µM. The MIC [2] was 30 µM, the “S. aureus cells killed” value (S. aureus ATCC25923 [9]; ATCC25923, mouse, in vivo, iv, 15 mg/kg, 10 h) was “approximately 76.6%” and the MIC (P. aeruginosa CICC21630) was over 60 µM. For the same compound, the MIC [3] was over 60 µM, the MIC [4] was 30 µM and the MIC [5] was 60 µM. It also gave an MIC [6] of 7.4 µM, an MIC (S. pullorum CVCC1802) of over 60 µM and an MIC [7] of 15 µM. For the same compound, the MIC (S. choleraesuis CVCC503) was 60 µM, the MIC (S. pullorum CVCC1789) was over 60 µM and the MIC [8] was over 30 µM. It also gave an MIC (Escherichia coli CVCC195) of 30 µM.
Work on FKCWRWQWRWKKLGAPS [Lfcin6] yielded an MIC (S. enteritidis CVCC3377) of 7.1 µM, an MIC (S. aureus ATCC25923 [1]) of 7.1 µM and an MIC (E. coli CVCC1515) of 57 µM. The MIC [2] was 57 µM, the MIC (P. aeruginosa CICC21630) was over 57 µM and the MIC [3] was over 57 µM. It also gave an MIC [4] of over 57 µM, an MIC [5] of over 57 µM and an MIC [6] of 14 µM. It also gave an MIC (S. pullorum CVCC1802) of over 57 µM, an MIC [7] of 57 µM and an MIC (S. choleraesuis CVCC503) of over 57 µM. It also gave an MIC (S. pullorum CVCC1789) of over 57 µM, an MIC [8] of over 57 µM and an MIC (Escherichia coli CVCC195) of 57 µM.
For colistin [reference compound], the survival rate (LPS from E. coli O111:B4) was 75%.
